Common to all, as to assay: biochemical
Holding throughout (parameters): Thermal shift (DSF, SYPRO Orange) Tm shift of recombinant kinase domains at 10 uM compound

One assay addresses FLT1 (Homo sapiens, UniProt P17948).
The target of the next assay is T1, GAK (Homo sapiens, UniProt O14976).
T1 sequence (O14976 1-1311): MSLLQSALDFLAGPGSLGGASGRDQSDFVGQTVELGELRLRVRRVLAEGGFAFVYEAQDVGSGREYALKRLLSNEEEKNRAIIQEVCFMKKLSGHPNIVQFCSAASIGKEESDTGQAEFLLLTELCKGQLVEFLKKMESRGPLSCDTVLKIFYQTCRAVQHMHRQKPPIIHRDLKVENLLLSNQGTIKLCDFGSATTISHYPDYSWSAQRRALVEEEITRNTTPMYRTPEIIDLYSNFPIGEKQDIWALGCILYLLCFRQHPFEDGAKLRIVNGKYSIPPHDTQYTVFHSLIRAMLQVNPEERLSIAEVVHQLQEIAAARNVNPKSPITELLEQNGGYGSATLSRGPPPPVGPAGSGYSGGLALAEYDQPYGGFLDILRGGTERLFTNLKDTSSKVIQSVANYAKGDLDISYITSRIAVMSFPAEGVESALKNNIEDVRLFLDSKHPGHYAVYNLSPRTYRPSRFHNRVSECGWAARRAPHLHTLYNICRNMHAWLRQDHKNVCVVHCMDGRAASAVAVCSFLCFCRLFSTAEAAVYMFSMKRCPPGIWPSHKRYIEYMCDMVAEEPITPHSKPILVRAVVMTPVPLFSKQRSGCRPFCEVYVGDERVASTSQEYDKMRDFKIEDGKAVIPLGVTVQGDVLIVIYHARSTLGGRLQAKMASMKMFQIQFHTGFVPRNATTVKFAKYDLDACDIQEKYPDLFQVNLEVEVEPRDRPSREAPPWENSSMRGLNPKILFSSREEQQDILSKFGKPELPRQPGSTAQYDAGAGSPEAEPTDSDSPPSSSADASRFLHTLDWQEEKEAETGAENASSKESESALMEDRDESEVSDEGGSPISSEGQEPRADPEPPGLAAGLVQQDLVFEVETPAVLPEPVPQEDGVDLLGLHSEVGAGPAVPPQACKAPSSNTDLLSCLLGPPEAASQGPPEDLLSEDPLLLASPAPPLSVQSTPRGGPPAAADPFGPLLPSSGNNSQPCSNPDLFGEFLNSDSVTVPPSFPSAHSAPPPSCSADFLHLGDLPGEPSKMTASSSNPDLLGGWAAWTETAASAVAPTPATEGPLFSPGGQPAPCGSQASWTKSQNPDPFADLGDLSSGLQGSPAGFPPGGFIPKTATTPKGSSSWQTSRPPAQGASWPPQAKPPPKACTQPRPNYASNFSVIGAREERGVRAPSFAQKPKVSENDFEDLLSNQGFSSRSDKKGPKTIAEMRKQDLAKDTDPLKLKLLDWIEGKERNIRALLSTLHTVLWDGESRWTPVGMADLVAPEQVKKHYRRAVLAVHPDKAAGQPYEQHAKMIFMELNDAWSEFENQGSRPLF

Another assay addresses T2, Erk2 (Homo sapiens, UniProt P28482).
T2 construct: gene MAPK1

The next assay concerns the target T3, CK1d (Homo sapiens, UniProt P48730).
T3 construct: gene CSNK1D

For the next assay, the target named is T4, NEK1 (Homo sapiens, UniProt Q96PY6).
T4 sequence (Q96PY6 1-1258): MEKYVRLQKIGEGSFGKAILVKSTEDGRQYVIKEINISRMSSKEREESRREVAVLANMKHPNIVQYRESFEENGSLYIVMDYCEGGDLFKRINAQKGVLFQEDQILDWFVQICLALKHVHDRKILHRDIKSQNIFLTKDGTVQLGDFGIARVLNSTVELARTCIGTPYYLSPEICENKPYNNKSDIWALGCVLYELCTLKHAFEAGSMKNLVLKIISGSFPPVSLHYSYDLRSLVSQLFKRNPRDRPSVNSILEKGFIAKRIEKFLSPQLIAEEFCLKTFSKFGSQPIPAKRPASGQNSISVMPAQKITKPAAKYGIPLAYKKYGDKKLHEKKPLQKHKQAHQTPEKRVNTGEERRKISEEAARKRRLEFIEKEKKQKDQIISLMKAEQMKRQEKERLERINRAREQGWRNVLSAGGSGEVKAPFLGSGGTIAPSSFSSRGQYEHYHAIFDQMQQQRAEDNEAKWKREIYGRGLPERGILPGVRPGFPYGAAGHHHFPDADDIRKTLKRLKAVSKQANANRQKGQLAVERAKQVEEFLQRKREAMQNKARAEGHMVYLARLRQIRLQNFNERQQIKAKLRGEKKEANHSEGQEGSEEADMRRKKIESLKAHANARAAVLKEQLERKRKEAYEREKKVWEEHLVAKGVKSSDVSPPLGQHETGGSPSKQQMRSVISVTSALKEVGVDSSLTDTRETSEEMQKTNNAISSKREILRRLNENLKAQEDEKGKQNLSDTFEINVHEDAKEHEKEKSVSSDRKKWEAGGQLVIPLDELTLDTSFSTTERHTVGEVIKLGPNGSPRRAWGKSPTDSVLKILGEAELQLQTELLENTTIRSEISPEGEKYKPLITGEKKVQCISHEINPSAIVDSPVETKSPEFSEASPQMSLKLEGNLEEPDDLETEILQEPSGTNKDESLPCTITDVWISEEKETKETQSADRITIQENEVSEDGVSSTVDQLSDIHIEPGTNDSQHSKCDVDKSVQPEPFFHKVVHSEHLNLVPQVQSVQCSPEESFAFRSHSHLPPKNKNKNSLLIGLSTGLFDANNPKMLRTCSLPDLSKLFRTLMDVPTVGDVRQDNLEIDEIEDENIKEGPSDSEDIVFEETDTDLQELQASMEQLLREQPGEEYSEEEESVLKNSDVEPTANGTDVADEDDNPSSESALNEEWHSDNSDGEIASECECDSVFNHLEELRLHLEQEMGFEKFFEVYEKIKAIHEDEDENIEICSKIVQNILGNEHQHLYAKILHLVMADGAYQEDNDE

Like-named read-outs stand apart in the source and are kept apart here.

T2 sequence (P28482 whole entry): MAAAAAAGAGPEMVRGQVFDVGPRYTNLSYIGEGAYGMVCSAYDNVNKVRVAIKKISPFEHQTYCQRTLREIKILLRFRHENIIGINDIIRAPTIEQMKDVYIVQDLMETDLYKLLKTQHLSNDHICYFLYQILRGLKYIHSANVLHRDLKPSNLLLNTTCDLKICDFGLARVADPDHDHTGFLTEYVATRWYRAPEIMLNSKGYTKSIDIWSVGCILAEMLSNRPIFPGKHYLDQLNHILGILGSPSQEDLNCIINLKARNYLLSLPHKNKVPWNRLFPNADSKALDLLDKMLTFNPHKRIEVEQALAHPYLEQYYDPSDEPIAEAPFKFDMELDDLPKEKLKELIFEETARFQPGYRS
Sequence of FLT1 (P17948 whole entry): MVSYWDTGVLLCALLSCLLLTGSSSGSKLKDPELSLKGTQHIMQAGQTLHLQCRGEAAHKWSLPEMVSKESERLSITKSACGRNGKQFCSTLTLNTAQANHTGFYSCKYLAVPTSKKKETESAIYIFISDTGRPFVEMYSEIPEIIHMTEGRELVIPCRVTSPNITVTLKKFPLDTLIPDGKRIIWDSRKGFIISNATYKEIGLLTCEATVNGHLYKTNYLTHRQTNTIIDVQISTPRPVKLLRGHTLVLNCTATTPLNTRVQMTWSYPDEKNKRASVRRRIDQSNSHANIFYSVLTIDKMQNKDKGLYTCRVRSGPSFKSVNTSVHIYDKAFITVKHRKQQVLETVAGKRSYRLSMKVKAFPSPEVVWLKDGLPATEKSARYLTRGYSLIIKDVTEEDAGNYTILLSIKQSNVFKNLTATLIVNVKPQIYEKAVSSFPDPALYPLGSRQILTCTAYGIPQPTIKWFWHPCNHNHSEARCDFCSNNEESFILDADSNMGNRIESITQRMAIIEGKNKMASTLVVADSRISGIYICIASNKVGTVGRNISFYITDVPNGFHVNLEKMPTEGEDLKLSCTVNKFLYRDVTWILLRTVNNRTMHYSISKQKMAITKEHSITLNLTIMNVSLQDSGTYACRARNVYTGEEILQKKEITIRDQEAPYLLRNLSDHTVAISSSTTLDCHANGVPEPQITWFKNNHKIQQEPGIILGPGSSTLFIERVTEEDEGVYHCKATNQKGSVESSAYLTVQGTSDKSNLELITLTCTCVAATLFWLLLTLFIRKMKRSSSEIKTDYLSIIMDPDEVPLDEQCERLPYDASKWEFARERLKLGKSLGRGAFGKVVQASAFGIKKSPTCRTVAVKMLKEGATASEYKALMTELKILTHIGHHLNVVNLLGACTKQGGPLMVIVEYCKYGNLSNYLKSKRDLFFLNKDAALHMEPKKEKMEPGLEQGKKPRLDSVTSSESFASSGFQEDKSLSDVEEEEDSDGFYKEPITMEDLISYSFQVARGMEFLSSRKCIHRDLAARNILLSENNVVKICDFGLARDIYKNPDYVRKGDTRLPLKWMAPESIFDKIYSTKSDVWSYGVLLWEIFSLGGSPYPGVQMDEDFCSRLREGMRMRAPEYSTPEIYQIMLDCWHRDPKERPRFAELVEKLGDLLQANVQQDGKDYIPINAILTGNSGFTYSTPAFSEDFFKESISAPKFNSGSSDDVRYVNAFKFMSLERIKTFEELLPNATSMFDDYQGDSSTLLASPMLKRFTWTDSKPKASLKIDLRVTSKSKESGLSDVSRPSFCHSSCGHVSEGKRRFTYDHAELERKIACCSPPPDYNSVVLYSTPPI
T3 sequence (P48730 whole entry): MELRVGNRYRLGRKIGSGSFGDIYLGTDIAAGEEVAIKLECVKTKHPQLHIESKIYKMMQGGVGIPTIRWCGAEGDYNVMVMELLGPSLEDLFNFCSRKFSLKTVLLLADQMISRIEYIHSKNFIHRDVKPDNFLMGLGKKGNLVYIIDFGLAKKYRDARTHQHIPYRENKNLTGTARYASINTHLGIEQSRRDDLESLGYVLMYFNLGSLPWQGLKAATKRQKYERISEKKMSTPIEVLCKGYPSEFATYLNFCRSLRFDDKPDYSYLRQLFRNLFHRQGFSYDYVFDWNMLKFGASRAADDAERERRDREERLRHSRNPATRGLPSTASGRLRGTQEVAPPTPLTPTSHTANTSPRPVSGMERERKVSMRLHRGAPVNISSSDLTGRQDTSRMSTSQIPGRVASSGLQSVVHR

Take `CC(C)Oc1ccc2ccn(-c3cncc(-c4ccc(C(=O)O)cc4)n3)c2c1` [6c]: the ΔTm at 10 µM on FLT1 (read-out: 6c) was 7 °C; on GAK (read-out: 6c) it was 9 °C; at Erk2 (read-out: 6c), 0 °C; at CK1d (read-out: 6c) it was 3 °C; on NEK1 (read-out: 6c), 0 °C.
Turning to `COc1ccc(OC(C)C)cc1Nc1cncc(-c2ccc(C(=O)O)cc2)n1` [7c], the ΔTm at 10 µM at FLT1 (read-out: 7c) amounted to 5 °C; on GAK (read-out: 7c), 7 °C; on Erk2 (read-out: 7c), 0 °C; on CK1d (read-out: 7c), 2 °C; on NEK1 (read-out: 7c), 0 °C.
On to `CC(C)Nc1ccc2cnn(-c3cncc(-c4ccc(C(=O)O)cc4)n3)c2c1` [compound 2, 2], for which the ΔTm at 10 µM at FLT1 (read-out: 2) is 7 °C; at GAK (read-out: 2), 11 °C; on Erk2 (read-out: 2) it was 0 °C; on CK1d (read-out: 2), 3 °C; on NEK1 (read-out: 2) it was 1 °C.

(Values after publication doi:10.1101/2023.12.04.569845, “Identification of 4-(6-((2-methoxyphenyl)amino)pyrazin-2-yl)benzoic acids as CSNK2A inhibitors with antiviral activity and improved selectivity over PIM3” (bioRxiv, 2023).)
